Experimental data: PubChem BioAssay (NCI)
Values joined by “and” are separate entries in the source; they are usually repeats but may differ in a detail not shown here. Equal values may be shown once.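 48-hour exposure; five concentrations; linearly interpolated endpoints. GI50 marks 50% less growth. The concentration for full growth arrest is given as TGI.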

Key:
Assay in all cases: DTP human tumour cell line panel, 48 h
[1] = system: HOP-92 NSCLC
[2] = system: HT29 colon
[3] = system: MALME-3M melanoma
[4] = system: CCRF-CEM leukemia
[5] = system: MDA-MB-435
[6] = system: K-562 leukemia
[7] = system: SNB-19 CNS
[8] = system: M14 melanoma
[9] = system: SF-539 CNS
[10] = system: BT-549 breast

Row | Compound | GI50 [1] [µM] | TGI [1] | GI50 [2] | TGI [2] | GI50 [3] [µM] | TGI [3] | GI50 [4] | TGI [4] | GI50 [5] | TGI [5] | GI50 [6] | TGI [6] | GI50 [7] | TGI [7] | GI50 [8] [µM] | TGI [8] [µM] | GI50 [9] | TGI [9] | GI50 [10] [µM] | TGI [10]
1 | OC(COc1cccc2ccccc12)CN1CCN(c2ccccc2)CC1 (stereo not given) | 4.86 | 19 µM | 15 µM | 30 µM | 15.3 | 31.4 µM | 17.9 µM | 53.2 µM | 15.5 µM | 30.5 µM | 13.7 µM | 34 µM | 15.8 µM | 30.7 µM | 15.5 | 29.7 | 18.1 µM | 33.9 µM | 17.9 | 32.2 µM
2 | CN(C)CCCNc1nccc(-c2c(-c3ccc(F)cc3)nn3cc(C(F)(F)F)ccc23)n1 | 3.61 | > 25 µM | 6.58 µM | > 23.9 µM | 4.32 | 9.36 µM | 8.08 µM | > 25 µM | 5.46 µM | 15.2 µM | 4.81 µM | 14.2 µM | > 19.6 µM | > 25 µM | 4.37 | 9.06 | 15.5 µM | > 25 µM | > 23.4 | > 25 µM
3 | CNC(C)C(=O)N[C@H](C(=O)N1CCC[C@@H]1CN(CCc1ccccc1)C(=O)C(F)(F)F)[C@H](C)OCC#CC#CCO[C@H](C)[C@H](NC(=O)[C@H](C)NC)C(=O)N1CCC[C@H]1CN(CCc1ccccc1)C(=O)C(F)(F)F (stereo not given in full) | 0.373 | 1.61 µM | 0.465 µM | 1.53 µM | 0.0115 | 0.716 µM | 0.602 µM | 2.54 µM | 1.63 µM | 3.46 µM | 0.366 µM | 1.49 µM | 1.81 µM | 3.43 µM | 1.79 | 3.41 | < 0.01 µM | 0.199 µM | < 0.01 | 1.69 µM
4 | CC[CH2][Sn]([Cl])([Cl])[CH2]CC | 10.6 | 23.7 µM | 14.4 µM | 30.9 µM | 1.55 | 4.91 µM | 1.24 µM | > 100 µM | 12.5 µM | 26.9 µM | 3.33 µM | > 100 µM | 13.2 µM | 25.9 µM | 11.1 | 24.1 | 11.1 µM | 25 µM | 7.87 | 20.5 µM
5 | CCCN(CCC)CCCNC(=O)c1cc2c(-c3ccc(OC)c(OC)c3)nn(C)c2s1 | 6.15 | 46.9 µM | 14.5 µM | 45.3 µM | 18.4 | 35.8 µM | 20.3 µM | 65.6 µM | 14.1 µM | 31.8 µM | 21.5 µM | 66.2 µM | 34.2 µM | > 100 µM | 17.2 | 35 | 16 µM | 31.1 µM | 20.9 | 87 µM
6 | COC(=O)Nc1nc2cc3c(cc2s1)OCCO3 | > 50 | > 50 µM | > 50 µM | > 50 µM | > 50 | > 50 µM | > 50 µM | > 50 µM | > 50 µM | > 50 µM | > 50 µM | > 50 µM | > 50 µM | > 50 µM | > 50 | > 50 | > 50 µM | > 50 µM | > 50 | > 50 µM
7 | COc1cc(C2CC(c3cc(C)ccc3C)=NN2c2ccc(S(=O)(=O)NC(=O)NCc3ccccc3)cc2)cc(OC)c1OC (stereo not given) | 1.96 | 7.47 µM | 3.87 µM | 47.7 µM | 3.48 | 9.61 µM | 3.15 µM | 18.6 µM | 2.27 µM | 5.25 µM | 4 µM | 34.1 µM | 3.75 µM | 43.8 µM | – | – | 2.02 µM | 4.69 µM | 3.08 | 12.6 µM
8 | O=C(CCCc1ccccn1)c1ccccc1 | – | > 100 µM | – | > 100 µM | – | > 100 µM | – | > 100 µM | – | > 100 µM | – | > 100 µM | – | > 100 µM | – | > 100 | – | > 100 µM | – | > 100 µM
9 | C=CCN(/C=C1\C(=O)O[C@H](COC)[C@@]2(C)C1=C(O)C(=O)C1=C2[C@H](OC(C)=O)C[C@]2(C)C(=O)CC[C@@H]12)CC=C | – | 20 µM and 4.4 µM | 0.101 µM and 0.558 µM | 20 µM and > 100 µM | – | 5.5 µM and 8.3 µM | 11.1 µM and 1.41 µM | 20 µM and > 100 µM | 1.29 µM and 3.63 µM | 13.5 µM and 46.9 µM | 15.1 µM and 12 µM | 20 µM and > 100 µM | 5.92 µM and 1.1 µM | 20 µM and 92.9 µM | 2.98 | > 100 | 3.6 µM and 0.524 µM | 20 µM and 6.41 µM | – | 20 µM and 3.68 µM
